Assay results reported in patent US20030086902A1, “Cytokine-like peptide” (priority 1999, published 2003).

Legend:
Assay type in all cases: cell-based
sindbis viruses [1] = experiment: antiviral bioassay using FL cells and sindbis viruses
Experimental: The antiviral activity of the resultant synthetic peptides was inspected by a bioassay method using human amnion-derived FL cells and sindbis viruses (Armstrong, J. A., Methods in Enzymology, 78, 381-387 (1981)). FL cells were inoculated on wells of a 96-well microtiter plate (IWAKI GLASS CO., LTD.) at 3.5×10^5 cells/well and cultured for 24 hours. Thereafter, each peptide was added at the concentration shown in FIG. 3 (0.9 μM to 120 μM) and cultured for 24 hours. […] Thereafter, sindbis viruses were added to each well and cultured for 15 hours. The culture solution was discarded, the plate was immersed in a crystal violet solution containing formalin for about 15 minutes, and living cells were immobilized and stained.
In order to identify an amino acid residue that plays an important role in expressing the antiviral activity of peptide SYR6, 12 types of varied peptides were prepared through chemical synthesis in which each of all the amino acid residues other than alanine of SYR6 were respectively substituted with alanine (peptides were successively designated as N1 to N15 in order from the N-terminus side in accordance with the number of the amino acid residue converted into alanine. Since the fourth, eighth, and ninth residues are alanine, excluding these, a total of 12 types of peptides was prepared). The sequences are shown in the lower part of FIG. 7. […]

[2] = test system: vesicular stomatitis viruses (VSV); details: human amnion-derived FL cells
sindbis viruses [3] = experiment: antiviral activity in the presence of interferon neutralizing antibodies (FL cells, sindbis viruses); details: MIF-1 (anti-IFN α), YSB-1 (anti-IFN β), anti-IFN γ antibodies added
Experimental: In order to deny the possibility that the antiviral activity of peptide SYR6 is attained by inducing endogenous production of interferon, the antiviral activity in the presence of various interferon neutralizing antibodies was examined. FL cells were inoculated on wells of a 96-well microtiter plate (IWAKI GLASS CO., LTD.) at 3.5×10^5 cells/well and cultured for 24 hours. Thereafter, peptide SYR6 was added at the concentration shown in FIG. 5 (0.9 μM to 120 μM) and cultured for 24 hours. […] Thereafter, sindbis viruses were added to each well and cultured for 15 hours. In this case also, various neutralizing antibodies were added and cultured under the same conditions as described above. The culture solution was discarded, the plate was immersed in a crystal violet solution containing formalin for about 15 minutes, and living cells were immobilized and stained. […] Therefore, the possibility that the antiviral activity of peptide SYR6 was attained by inducing the production of endogenous interferon was denied.

In the case of “SYR6: synthetic 15-residue peptide with the sequence of phage 6, SEQ ID NO: 1 (SVQARWEAAFDLDLY; Designed peptide based on the DNA sequence of phage binding to monoclonal antibody YSB-2)”, the “antiviral activity of the synthetic peptides (FIG. 3)” value (sindbis viruses [1]; FL cells, SYR6 HPLC peaks measured separately) is reported as “activity was recognized”, the “concentration at which the peptide began to exhibit antiviral activity” value (sindbis viruses [1]; human amnion-derived FL cells, peptide 0.9 μM to 120 μM for 24 hours) is reported as 30 µM and the “concentration at which the peptide began to exhibit antiviral activity” value [2] is reported as 30 µM. The “antiviral activity in the presence of interferon neutralizing antibodies” value (sindbis viruses [3]) was “not affected at all”.
